pEC50: −log10 of the molar value. Counter-ions that a name gives are not always drawn.
Assays:
HUVEC = test: Endothelial migration and chemotaxis assay (cancer cell-free); type: cell-based, human; conditions: LRP8 receptor-dependent
Protocol: Serum-starved HUVEC's were pulsed with Cell Tracker Red CMTPX dye for 45 minutes and seeded into HTS Fluoroblock trans-well inserts at a concentration of 1×10^5 HUVEC's in 0.5 mL starvation media per each insert. The assay was allowed to proceed for 16-18 hours at 37° C., and the inserts were processed and analyzed as described above (See Matrigel Invasion Assay).
HUVEC's were serum-starved in 0.2% FBS EGM-2 media for 16 hours and labeled with Cell Tracker Red CMTPX dye for 45 minutes. Meanwhile, the indicated amounts (1-5 μg) of recombinant human ApoE3 or BSA were mixed with 250 μL of matrigel (356231, BD Biosciences) and allowed to solidify at the bottom of a 24-well plate for 30 min. 250 μL of HUVEC EGM-2 media containing 0.2% FBS was then added to each matrigel-coated well, and […] HTS Fluoroblock inserts were fitted into each well. 1×10^5 HUVEC's, resuspended in 0.5 mL of starvation media, were seeded into each insert and allowed to migrate along the matrigel gradient for 16-18 hours at 37° C. Upon completion of the assay, the inserts were mounted on slides and analyzed as described above (See Matrigel Invasion Assay).

LXRβ = target: T1, LXRβ (Homo sapiens, UniProt P55055); conditions: LiSA, unit inferred; cited from earlier work
T1 sequence (P55055 184-460 limits assumed): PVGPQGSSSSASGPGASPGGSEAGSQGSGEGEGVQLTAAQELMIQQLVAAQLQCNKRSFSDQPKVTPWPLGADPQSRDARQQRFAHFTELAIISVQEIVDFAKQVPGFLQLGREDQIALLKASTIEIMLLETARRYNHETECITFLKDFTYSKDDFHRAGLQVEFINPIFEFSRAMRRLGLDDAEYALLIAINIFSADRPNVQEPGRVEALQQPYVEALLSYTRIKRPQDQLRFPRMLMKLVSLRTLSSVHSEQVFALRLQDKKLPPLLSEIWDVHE
T1 sequence (Q15788 676-700 partner limits assumed): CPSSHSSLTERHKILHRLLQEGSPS

[1] = test system: MeWo, SK-Mel-2, SK-Mel-334.2, SK-Mel-239 human melanoma cells; test: Subcutaneous human melanoma tumor growth in immunocompromised mice; type: in vivo
From the text: (§1) All data are represented as mean±SEM.
as §1

MeWo cells = test: Orthotopic metastasis assay after tumor excision; type: in vivo, human; conditions: chow 100 mg/kg for 1 month
Protocol: To determine the effect of GW3965 treatment on lung colonization by melanoma cells dissociated from an orthotopic site, 1×10^6 MeWo cells expressing a luciferase reporter were subcutaneously injected into both lower flanks of NOD Scid mice. Upon the formation of tumors measuring 300 mm^3 in volume, the tumors were excised and the mice were randomly assigned to a control diet or a GW3965-supplemented diet (100 mg/kg) treatment. One month after tumor excision, the lungs were extracted and lung colonization was measured by ex vivo bioluminescence imaging. To histologically confirm the extent of melanoma lung colonization, lungs were then fixed in 4% PFA overnight, paraffin-embedded, section into […] increments and stained for human vimentin (VP-V684, Vector Laboratories).

[2] = test system: Tyr::CreER; B-RafV600E/+; Ptenlox/+ and Ptenlox/lox mice; test: Genetically-initiated model of melanoma progression; type: in vivo, mouse
Protocol: The Tyr::CreER; B-Raf^V600E/+, Pten^lox/+/Tyr::CreER; B-Raf^V600E/+, Pten^lox/lox conditional model of melanoma progression was previously established and characterized by Dankort et al. (2009). Briefly, melanoma in these mice was induced at 6 weeks of age by intraperitoneally injecting 4-HT (H6278, 70% isomer, Sigma-Aldrich, St Louis, Mo.) at 25 mg/kg administered in peanut oil on three consecutive days. The 4-HT stock solution was prepared by dissolving it in 100% EtOH at 50 mg/mL by heating at 45° C. for 5 min and mixing. Once dissolved, the stock 4-HT solution was then diluted by 10-fold in peanut oil, yielding a 5 mg/mL 4-HT working solution that was then injected into mice. After the first 4-HT injection, mice were blindedly assigned to receive either a control diet or a diet supplemented with GW3965 (100 mg/kg). Mice were examined three times a week for the presence and progression of melanoma lesions. At day 35, dorsal skin samples were harvested from control-treated and GW3965-treated mice, fixed in 4% PFA and photographed at 10×. The percentage of pigmented melanoma lesion area out of the total skin area was quantified using ImageJ. For survival analyses, mice were monitored daily for melanoma progression and euthanized according to a standard body condition score, taking into account initial signs of moribund state and discomfort associated with the progression of melanoma burden. Post-mortem, the lungs, brains, and salivary glands were harvested and examined for the presence of macroscopic melanoma lesions.

[3] = test system: LXR signaling in the brain; conditions: cited from earlier work

Compound: recombinant human ApoE3: recombinant human ApoE3 (4696, BioVision)
- endothelial migration in trans-well and gradient-based chemotactic assay (HUVEC): sufficient to inhibit

Compound: O=C(O)Cc1cccc(OCCCN(Cc2cccc(C(F)(F)F)c2Cl)CC(c2ccccc2)c2ccccc2)c1 [GW3965 2, 3-[3-[N-(2-Chloro-3-trifluoromethylbenzyl)-(2,2-diphenylethyl)amino]propyloxy]phenylacetic acid hydrochloride]
- pEC50 (LXRβ): 7.52
- suppression of growth of SK-Mel-239 vemurafenib-resistant line ([1]; diet 100 mg/kg, NOD Scid gamma mice): 72%
- overall survival time, MeWo and SK-Mel-334.2 xenografts ([1]; immunocompromised mice, chow 100 mg/kg after tumor establishment): substantially prolonged
- tumor growth inhibition, MeWo ([1]; oral in diet): 70%
- tumor growth inhibition, SK-Mel-2 ([1]; oral in diet): 49%
- tumor growth inhibition, SK-Mel-334.2 ([1]; oral in diet): 73%
- growth of in vivo-derived DTIC-resistant MeWo tumors ([1]; oral, diet 100 mg/kg, NOD Scid gamma mice): strongly inhibited
- inhibition of lung colonization by disseminated melanoma cells post-tumor excision (MeWo cells): 17 fold
- overall survival times ([2]; Ptenlox/+ and Ptenlox/lox mice, diet 100 mg/kg): significantly extended
- number of lymphatic metastases detected post-mortem ([2]; Ptenlox/lox mice, salivary gland lymph nodes, 100 mg/kg): decrease
- tumor progression ([2]; diet 100 mg/kg after melanoma initiation): attenuated
- blood brain barrier crossing ([3]; in vivo): can efficiently cross the blood brain barrier
- amyloid plaque pathology and memory deficits in pre-clinical models of Alzheimer's disease ([3]; oral delivery): improve amyloid plaque pathology and memory deficits
